Converted amounts (≈) assume the structure as drawn. Read-outs that look alike come from different tables or passages of the source.
How the values were obtained:
[1] = cumulative toxicity in mice (maximum tolerated dose, once a day for 6 consecutive days); settings: mouse, in vivo, ip, i.p. once a day for 6 consecutive days, total dose, read-out: Maximum Tolerated Dose (total dose not causing death)
Outline: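 Mice dosed intraperitoneally once a day for 6 consecutive days with a fixed amount per unit body weight. The value is the maximum total dose not causing death.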

[2] = acute toxicity in mice (single intraperitoneal administration); settings: mouse, in vivo, ip, read-out: LD50 (median lethal dose on single administration)
Protocol: In Table 8 median lethal doses (LD50) of typical compounds of this invention are shown, measured in mice upon single intraperitoneal administration, as well as maximum tolerated doses in terms of total dose when a fixed amount per unit body weight was administered intraperitoneally to mice once a day for 6 consecutive days.
*Median lethal dose on single administration.

[3] = test system: mouse leukemia L-1210; test: therapeutic effect on implanted cancer in mice (L-1210, survival over 30 days); type: in vivo, mouse (BDF1); settings: L1210, ip, 720 h, 6 days; for responders at 6.25 mg/kg / response vs control in vivo at 6.25 mg/kg: 6.25 mg/kg/day i.p.; for responders at 12.5 mg/kg / response vs control in vivo at 12.5 mg/kg: 12.5 mg/kg/day i.p.; for responders at 25 mg/kg / response vs control in vivo at 25 mg/kg: 25 mg/kg/day i.p.; for responders at 50 mg/kg / response vs control in vivo at 50 mg/kg: 50 mg/kg/day i.p.
Outline: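 In vivo antileukemic activity was assessed using 5-week-old male BDF1 mice implanted i.p. with 10^5 L-1210 cells. Compound in physiological saline was given by daily intraperitoneal injection over 6 days beginning on the day of implantation; survival was monitored over a 30-day observation period, comparing treated with control groups.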

[4] = test system: mouse leukemia L-1210 cells; test: growth inhibitory activity to cancer cells in vitro (L-1210, 48 hours); type: cell-based; settings: for inhibition at 5 µg/mL: L1210, 5 mcg/ml; for inhibition at 10 µg/mL: L1210, 10 mcg/ml; for inhibition at 20 µg/mL: L1210, 20 mcg/ml; for inhibition at 40 µg/mL: L1210, 40 mcg/ml; for IC50: L1210, L-1210 cells, read-out: 50% inhibitory concentration
Outline: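 L-1210 cells from DBA/2 mouse ascites, cultured at 5×10^4 cells per well in RPMI 1640 with 10% FCS and 5 μM 2-mercaptoethanol, 37° C, CO2, for 48 h with compound. Cell counts by Coulter Counter gave % inhibition (1−T/C)×100, and IC50 was derived across concentrations.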

[5] = chemical stability: retention (%) after heating at 60° C. for 4 hours, by HPLC; type: physicochemical
Protocol: The chemical stability of the present compound was evaluated by determining the retention (%) after heating at 60° C. for 4 hours. In Table 5 are shown the test results together with those for spergualin as reference. The retention was determined by means of high performance liquid chromatography (HPLC). The column was packed with Nucleosil® 5C18. The solvent used for spergualin was a mixture (6:94) of acetonitrile -0.01M sodium pentanesulfonate +0.01M Na2 HPO4 (pH 3), while that for the compounds of this invention was a mixture of acetonitrile -0.005M sodium pentanesulfonate ±0.01M Na2 HPO4 (pH 3). The mixture ratio in the latter case was varied for each particular compound. For instance, a mixing ratio of 10:90 was used for Compound No. 9, while that of 7:93 for Compound No. 22.

[6] = read-out: Number of mice survived for 30 days (converted)
[7] = read-out: Prolongation of survival period (%), T/C × 100
[8] = read-out: Growth inhibition (%), (1-T/C) × 100

Q: Which results are given for `COC(NC(=O)CCCCCCNC(=N)N)C(=O)NCCCCNCCCN` (racemic) [Compound 9, N-[4-(3-aminopropyl)aminobutyl]-2-(7-guanidinoheptanamido)-2-methoxyethanamide]?
A: MTD [1]: > 75 mg/kg; LD50 ([2]; mice, single i.p.): 12.5 to 25 mg/kg; responders at 0.2 mg/kg ([3]; 0.20 mg/kg/day i.p., read-out: Number of mice survived for 30 days (converted)): 0%; response vs control in vivo at 0.2 mg/kg ([3]; 0.20 mg/kg/day i.p., read-out: Prolongation of survival period (%), T/C × 100): 114%; responders at 0.39 mg/kg ([3]; 0.39 mg/kg/day i.p., read-out: Number of mice survived for 30 days (converted)): 0%; response vs control in vivo at 0.39 mg/kg ([3]; 0.39 mg/kg/day i.p., read-out: Prolongation of survival period (%), T/C × 100): 171%; responders at 0.78 mg/kg ([3]; 0.78 mg/kg/day i.p., read-out: Number of mice survived for 30 days (converted)): 50%; response vs control in vivo at 0.78 mg/kg ([3]; 0.78 mg/kg/day i.p., read-out: Prolongation of survival period (%), T/C × 100): > 300%; responders at 1.56 mg/kg ([3]; 1.56 mg/kg/day i.p., read-out: Number of mice survived for 30 days (converted)): 25%; response vs control in vivo at 1.56 mg/kg ([3]; 1.56 mg/kg/day i.p., read-out: Prolongation of survival period (%), T/C × 100): > 411%; responders at 3.13 mg/kg ([3]; 3.13 mg/kg/day i.p., read-out: Number of mice survived for 30 days (converted)): 100%; response vs control in vivo at 3.13 mg/kg ([3]; 3.13 mg/kg/day i.p., read-out: Prolongation of survival period (%), T/C × 100): > 429%; responders at 6.25 mg/kg [3, 6]: 100%; response vs control in vivo at 6.25 mg/kg [3, 7]: > 429%; responders at 12.5 mg/kg [3, 6]: 100%; response vs control in vivo at 12.5 mg/kg [3, 7]: > 429%; responders at 25 mg/kg [3, 6]: 0%; response vs control in vivo at 25 mg/kg [3, 7]: 0%; responders at 50 mg/kg [3, 6]: 0%; response vs control in vivo at 50 mg/kg [3, 7]: 0%; inhibition at 5 µg/mL [4, 8]: 35.5%; inhibition at 10 µg/mL [4, 8]: 45.9%; inhibition at 20 µg/mL [4, 8]: 62.3%; inhibition at 40 µg/mL [4, 8]: 78.1%; inhibition at 80 µg/mL ([4]; L1210, 80 mcg/ml, read-out: Growth inhibition (%), (1-T/C) × 100): 90.9%; inhibition at 160 µg/mL ([4]; L1210, 160 mcg/ml, read-out: Growth inhibition (%), (1-T/C) × 100): 96%; IC50 [4]: 12 µg/mL (≈ 29.9 µM); remaining at 4 h ([5]; pH 2, pH 2): 69.3%; remaining at 4 h ([5]; pH 3, pH 3): 89.3%; remaining at 4 h ([5]; pH 4, pH 4): 100%; remaining at 4 h ([5]; pH 5, pH 5): 100%; remaining at 4 h ([5]; pH 6, pH 6): 100%; remaining at 4 h ([5]; pH 7, pH 7): 100%; remaining at 4 h ([5]; pH 8, pH 8): 100%; remaining at 4 h ([5]; pH 9, pH 9): 97.5%; remaining at 4 h ([5]; pH 10, pH 10): 97.9%

Q: What does the source list for `N=C(N)NCCCC[C@H](O)CC(=O)NC(OCCO)C(=O)NCCCCNCCCN` (stereo partly drawn) [Compound 25, N-[4-(3-aminopropyl)aminobutyl]-2-(7-guanidino-3-hydroxyheptanamido)-2-(2-hydroxy)ethoxyethanamide]?
A: MTD [1]: > 300 mg/kg; LD50 [2]: > 50 mg/kg; responders at 6.25 mg/kg [3, 6]: 0%; response vs control in vivo at 6.25 mg/kg [3, 7]: 107%; responders at 12.5 mg/kg [3, 6]: 0%; response vs control in vivo at 12.5 mg/kg [3, 7]: 193%; responders at 25 mg/kg [3, 6]: 0%; response vs control in vivo at 25 mg/kg [3, 7]: 229%; responders at 50 mg/kg [3, 6]: 100%; response vs control in vivo at 50 mg/kg [3, 7]: > 429%; inhibition at 2.5 µg/mL ([4]; L1210, 2.5 mcg/ml, read-out: Growth inhibition (%), (1-T/C) × 100): 9%; inhibition at 5 µg/mL [4, 8]: 20%; inhibition at 10 µg/mL [4, 8]: 42%; inhibition at 20 µg/mL [4, 8]: 63.5%; inhibition at 40 µg/mL [4, 8]: 74.7%; IC50 [4]: 7.2 µg/mL (≈ 16.1 µM); remaining at 4 h ([5]; pH 2, pH 2): 68.9%; remaining at 4 h ([5]; pH 4, pH 4): 100%; remaining at 4 h ([5]; pH 5, pH 5): 100%; remaining at 4 h ([5]; pH 6, pH 6): 100%; remaining at 4 h ([5]; pH 7, pH 7): 100%; remaining at 4 h ([5]; pH 8, pH 8): 100%; remaining at 4 h ([5]; pH 9, pH 9): 97.7%; remaining at 4 h ([5]; pH 10, pH 10): 95.5%

Source: patent publication US4983328A, “N-(4-(3-aminopropyl)aminobutyl)-2-(ω-gua nidino-fatty-acid-amido(-2-substituted-ethanamide, salt thereof, and process for preparation thereof” (Bristol-Myers Company, priority 1981, dated 1991)
